In the NIST ThermoML archive (doi:10.1007/s10765-013-1527-7):

Assay: xn = mol fraction of the nth substance listed
Conditions: 303 K, 101 kPa, Liquid; for speed of sound: Linear variable-path acoustic interferometer; for mass density: Pycnometric method

CC(C)=O [acetone] + Cc1ccccc1
speed of sound [m/s]
Conditions | x1 = 0.135 | x1 = 0.27 | x1 = 0.331 | x1 = 0.456 | x1 = 0.51 | x1 = 0.605 | x1 = 0.745 | x1 = 0.831 | x1 = 0.937
Frequency=1 MHz | 946 | – | – | – | – | – | – | – | –
Frequency=3 MHz | 1040 | 1032 | 1020 | 1000 | 981 | 965 | 943 | – | 1028
Frequency=5 MHz | 1150 | 1130 | 1102 | 1080 | 1040 | 1010 | 1000 | 1150 | 1230

Conditions | mass density [kg/m3]
x1 = 0.135 | 850
x1 = 0.27 | 840
x1 = 0.331 | 836
x1 = 0.456 | 827
x1 = 0.51 | 823
x1 = 0.605 | 817
x1 = 0.745 | 807
x1 = 0.831 | 800
x1 = 0.937 | 793
x1 = 1 | 789

Cc1ccccc1 [toluene] + CC(C)=O
Conditions | mass density [kg/m3]
x2 = 0 | 860
